# Assay results from article PMC11612208, “A novel small molecule Enpp1 inhibitor improves tumor control following radiation therapy by targeting stromal Enpp1 expression” (Scientific Reports, 2024).
# Tests used:
# Enpp1 [1] = target: T1, Enpp1 (Homo sapiens, UniProt P22413); assay: Selectivity and specificity for Enpp1 (statement); settings: additional studies necessary to confirm in vivo
# T1 sequence (P22413 1-925): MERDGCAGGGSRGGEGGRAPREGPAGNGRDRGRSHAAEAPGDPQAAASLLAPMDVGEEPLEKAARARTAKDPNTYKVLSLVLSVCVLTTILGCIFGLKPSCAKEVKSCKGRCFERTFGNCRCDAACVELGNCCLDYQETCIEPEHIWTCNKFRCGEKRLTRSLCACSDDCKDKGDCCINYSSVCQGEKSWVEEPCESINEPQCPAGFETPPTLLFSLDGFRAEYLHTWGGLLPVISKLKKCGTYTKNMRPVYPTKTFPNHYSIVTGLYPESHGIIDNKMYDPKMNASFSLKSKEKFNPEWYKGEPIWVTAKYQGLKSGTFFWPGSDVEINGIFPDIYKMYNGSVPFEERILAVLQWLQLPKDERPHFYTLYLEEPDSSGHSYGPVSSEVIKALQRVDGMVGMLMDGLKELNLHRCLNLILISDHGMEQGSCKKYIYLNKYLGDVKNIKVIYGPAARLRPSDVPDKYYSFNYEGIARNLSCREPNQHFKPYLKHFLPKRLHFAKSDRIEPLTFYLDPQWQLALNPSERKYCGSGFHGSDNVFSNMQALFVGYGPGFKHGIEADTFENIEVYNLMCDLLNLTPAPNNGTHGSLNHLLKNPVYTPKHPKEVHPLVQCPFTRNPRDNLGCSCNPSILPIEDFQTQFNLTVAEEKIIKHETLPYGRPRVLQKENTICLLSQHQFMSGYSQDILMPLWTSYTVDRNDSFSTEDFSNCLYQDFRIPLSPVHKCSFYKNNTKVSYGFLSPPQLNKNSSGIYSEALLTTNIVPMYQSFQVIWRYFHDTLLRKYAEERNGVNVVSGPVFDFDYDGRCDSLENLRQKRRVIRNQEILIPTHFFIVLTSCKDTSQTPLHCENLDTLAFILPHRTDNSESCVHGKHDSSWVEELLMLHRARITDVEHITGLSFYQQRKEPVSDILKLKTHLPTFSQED
# [2] = target: T2, HepG2 cells that express ENPP1 on their surface (Homo sapiens, UniProt P22413); assay: Cellular inhibition of cGAMP hydrolysis on HepG2 cells (cGAMP ELISA); format: cell-based; settings: 100 ng/mL 2'3'-cGAMP, overnight (20 h), read-out: EC50, protection of spiked-in cGAMP from hydrolysis
# T2 construct: HepG2 cells that express ENPP1 on their surface; host or cells: HepG2
# T2 sequence (P22413 1-925): T1 sequence (P22413 1-925)
# Experimental: (§1) Enzymatic inhibition assays were performed by incubating 1.5 nM ENPP1 (R&D Systems cat# 6136-EN-010) with serial dilutions of Vir-3 for 15 minutes at 37 °C in buffer (50mM Tris pH 8.0, 250mM NaCl, 0.5mM CaCl2, 1uM ZnCl2, 1% DMSO) before adding 20 uM 2’3’-cGAMP (Invivogen cat.# tlrl-nacga23). The reaction was incubated for 30 min at 37 °C prior to assessing the generated AMP using the AMP-Glo assay (Promega cat.# V5012). Cellular inhibition of cGAMP hydrolysis was performed using HepG2 cells pre-incubated with serial dilutions of Vir-3 in DMEM + 10% Charcoal stripped FBS for 30 min at 37 °C with 5% CO2. 100 ng/mL of 2’3’-cGAMP was then added to the cells and incubated for 20 h at 37 °C with 5% CO2. Media was then removed and the remaining cGAMP was quantified using a 2’3’-cGAMP ELISA kit (Cayman Chemical cat.# 501700).
# CT26 tumors = assay: CT26 tumor model in BALB/c mice, VIR3 oral gavage +/- 12 Gy focal RT, survival; format: in vivo, mouse; settings: daily oral gavage for 21 days
# Experimental: (§2) Tumors were implanted subcutaneously into the right flank as follows: C57BL/6 2 × 10^5 MC38; BALB/c 2 × 10^5 CT26. When tumors were approximately 5 mm in average diameter at approximately 10–14 days following implantation, mice were randomized to receive treatment with CT-guided radiation using the Small Animal Radiation Research Platform (SARRP) from XStrahl. Dosimetry was performed using Murislice software from XStrahl. The SARRP delivered a single dose of 12 Gy to an isocenter within the tumor using a 10 mm x 10 mm collimator and a 45° beam angle to minimize dose delivery to normal tissues. The Enpp1 inhibitor VIR3 was delivered through oral gavage starting 1 day prior to RT daily for 21 days. Tumors were measured using calipers in two directions and reported as mean tumor diameter. Survival curves were based on an endpoint of tumor diameter of greater than 12 mm in any direction.
# [3] = Toxicity observation in treated mice; format: in vivo; settings: mice treated with oral VIR3
# MC38 and CT26 tumors = assay: RNASeq of tumors 4 days following radiation treatment; format: in vivo, mouse; settings: VIR3 treatment
# Experimental: Mice were implanted with tumors and randomized to treatment with 12 Gy RT and VIR3 as above. 4d following RT, the tumors were harvested, debulked and immediately flash frozen by rapid immersion in liquid nitrogen. Frozen tumors were crushed, treated with 500 µl of RNAlater, then frozen at -80 °C. To extract RNA, the samples were thawed on ice, and 500 µl of buffer RLT (QIAGEN Cat. No. 79219) was added and samples were homogenized. Following centrifugation, RNA was isolated using a QIAGEN RNeasy Plus Mini Kit (Cat No. 74134), according to the manufacturer’s instructions. Quality was checked on nanodrop (ND-1000) and the quantity of RNA was determined on Qubit 4 flourometer. To prepare for sequencing, samples were processed using an Illumnia TruSeq® Stranded mRNA Library Prep kit with Illumina TruSeq RNA Single Indexes Set A and Set B barcoding kits. An Illumnia NovaSeq 6000 S1 Reagent Kit v1.5 was used to make RNA libraries along with a NovaSeq XP 2-Lane Kit v1.5. RNA libraries were sequenced on NovaSeq 6000.
# Demultiplexed fastq files for all samples were first processed with FastQC for general quality control. All the samples in the sequencing run passed read level QC with at least 17 million reads per sample. Average read depth across all samples were 51 million reads. Raw illumina BCL data was demultiplexed using Illumina bcl2fastq2 v2.20. Gene expression counts were quantified using salmon-v.1.1.0 [76] for all samples sequenced. Differential gene expression analysis was performed using the R software package edgeR[77]. Differential gene expression analysis was performed on all groups of Tumor+/-Drug+/-RT combinations. Gene set enrichment analysis was performed using GSEA v4.3.2 Preranked method[78],[79]. The following genesets; c3.all.v2023.2.Hs.symbols.gmt, c5.all.v2023.2.Hs.symbols.gmt, c7.all.v2023.2.Hs.symbols.gmt from Molecular Signatures Database (gsea-msigdb.org) were used for enrichment analysis.
# [4] = In vivo pharmacokinetics, IV and PO; settings: mouse
# Experimental: For pharmacokinetic analysis, female C57BL6 mice were dosed with Vir-3 by either IV administration or oral gavage or IV administration either once or daily for 5 days. 3 mice were used per time point with staggered groups to cover all times. Blood was collected at 0.25, 0.5, 1, 3-, 5-, 8- and 24-hours post-dose into heparinized tubes. Plasma was prepared from each sample and protein precipitated prior to LC-MS/MS injection. Levels of Vir-3 were quantitated, and data was analyzed using Certara’s Phoenix Winnonlin.
# [5] = test system: cDC1 and cDC2 in MC38 tumors; assay: Flow cytometry of myeloid infiltration in MC38 tumors; format: in vivo, mouse; settings: 4 days following radiation time point (d18)
# Experimental: Analysis of tumor infiltrating myeloid cells was performed as previously described. Briefly, following dissection, tumors were weighed and minced into small fragments, then transferred into C tubes from Miltenyi Biotec containing enzyme digest mix with 250U/mL collagenase IV (Worthington Biochemical, #LS004188), 30U/mL DNase I (Millipore-Sigma, #4536282001), 5mM CaCl2, 5% heat inactivated FBS and HBSS. Tissue was dissociated using a GentleMACS tissue dissociator from Miltenyi Biotech. This was followed by incubation at 37 °C for 30 min with agitation. Enzymatic reactions were quenched using ice cold RPMI containing 10% FBS and 2mM EDTA. Single cell suspensions were then filtered through 100 μm (tumor) or 40 μm (dLN) nylon cell strainers to remove macroscopic debris. Cells were washed and counted for staining. 2 × 10^6 cells were stained with Zombie Aqua Viability Dye from BioLegend (#423102) in PBS for 10 min on ice, then Fc receptors were blocked with anti-CD16/CD32 antibodies from BD Biosciences (2.4G2) for an additional 10 min. After centrifugation, the supernatant was removed and cell were stained with a surface antibody cocktail containing in FACS buffer (PBS, 2mM EDTA, 2% FBS) and Brilliant Stain Buffer Plus from BD Biosciences (#566385) for 20 min on ice. […] Data were analyzed using FlowJo software from Tree Star, v10.7. […]
# MC38 tumors = assay: MC38 tumor model, VIR3 oral gavage +/- 12 Gy focal RT, survival; format: in vivo, mouse
# Experimental: as §2
# To deplete CD8 T cells, 200 µg of depleting anti-CD8b (53 − 5.8, BioXCell, West Lebanon, NH) were administered intraperitoneally. This administration took place one day before the first dose of Vir3, followed by two additional anti-CD8b administrations at 7-day intervals.
# Enpp1 [6] = target: T1, Enpp1; assay: Enzymatic inhibition of recombinant ENPP1 cGAMP hydrolysis (AMP-Glo); format: biochemical; parameters: purchased R&D Systems 6136-EN-010; settings: recombinant ENPP1 1.5 nM, 20 uM 2'3'-cGAMP; value is the lower threshold of the assay
# Experimental: as §1
smiles,measurement,setting,value
COc1ccc2c(Nc3ccc(S(=N)(=O)NCC(C)O)cc3)ccnc2c1 (centres unmarked) [VIR3],selectivity and specificity for Enpp1,Enpp1 [1],high selectivity and specificity
same,EC50,[2],6.7 nM
same,"response to radiation therapy (survival), VIR3 + RT",CT26 tumors; 12 Gy on day 14,significantly improved the response to radiation therapy
same,"tumor growth, VIR3 alone",CT26 tumors; no RT,did not impact tumor growth alone
same,toxicity,[3],toxicity was not observed
same,Cdkn1a and Ccl2 gene expression in tumor,MC38 and CT26 tumors; CT26 and MC38 tumors,not impacted
same,Tsc33d3 gene expression in tumor,MC38 and CT26 tumors; both CT26 and MC38 tumors,upregulated
same,Wee1 gene expression in tumor,"MC38 and CT26 tumors; untreated and irradiated CT26 and MC38 tumors, FDR correction",significantly regulated
same,"Cmax, total",[4]; P.O. 60 mg/kg,795 ng/mL
same,oral bioavailability (in words),[4]; comparing IV and PO routes,low
same,half-life,"[4]; female, C57BL6, plasma, iv, I.V. 1 mg/kg",48.3 h
same,clearance,"[4]; female, C57BL6, plasma, iv, I.V. 1 mg/kg, approximate given extrapolation from a portion of AUCinf",~27.7 mL/min/kg
same,Vd,"[4]; female, C57BL6, plasma, iv, I.V. 1 mg/kg, read-out: Vss",52.5 L/kg
same,bioavailability,"[4]; female, C57BL6, plasma, oral, P.O. 60 mg/kg vs I.V. 1 mg/kg",5.7%
same,half-life,"[4]; female, C57BL6, plasma, po, P.O. 60 mg/kg",24.3 h
same,AUC(0-t),"[4]; female, C57BL6, plasma, po, P.O. 60 mg/kg, read-out: AUC0-last, total",1420 ng·h/mL
same,"dendritic cells (cDC1, cDC2) in tumor, VIR3 alone",[5],can cause DC loss
same,"response to radiation therapy (survival), VIR3 + RT","MC38 tumors; MC38 tumors in C57BL/6 mice, daily oral gavage for 21 days, 12 Gy on second day of dosing",significantly improved the response to radiation therapy
same,"tumor growth, VIR3 alone","MC38 tumors; MC38 tumors in C57BL/6 mice, daily oral gavage for 21 days, no RT",did not impact tumor growth alone
same,response to RT + VIR3 with loss of IFNAR1 in host cells,MC38 tumors; MC38 tumors in IFNAR1-/- mice,completely abrogated all responses to treatment
same,tumor control by RT + VIR3 with loss of STING in host cells,"MC38 tumors; MC38 tumors in STING-/- mice, no statistically significant difference in survival by logrank test",fewer mice cured
same,tumor control by RT + VIR3 with CD8 depletion,"MC38 tumors; MC38 tumors, wt mice, anti-CD8 given",abrogated tumor control
same,IC50,Enpp1 [6],< 0.75 nM
